Reference: patent publication US20250268931A1, “TRANSCRIPTIONAL INHIBITOR FOR IMMUNE-RELATED GENE” (The University of Tokyo, priority 2022, published 2025)

Test system: IFN-β
Assay: IFN-β concentration in culture supernatant of LPS-stimulated Raw264.7 cells (ELISA)
Format: cell-based
Details: PIPA 1, 3 or 10 μM 24 h, then LPS 20 ng/mL 16 h
Description: Raw264.7 cells, a macrophage cell line, were seeded on a 96-well plate at a cell density of 2×10^4 cells/well, and were then culture for 8 hours for adhesion. Thereafter, IRF-PIPA was added to the cultured cells to final concentrations of 1, 3, or 10 μM. After completion of the culture for 24 hours, LPS was added to the cultured cells to a final concentration of 20 ng/mL, and the obtained mixture was then cultured for 16 hours, followed by the recovery of the supernatant. The supernatant was 2-fold diluted with 1% BSA-PBS, and the IFN-β concentration was then measured by ELISA.
Raw264.7 cells, a cell line, were purchased from RIKEN Cell Bank, and were then cultured using D-MEM (Nacalai Tesque) containing 10% FBS (SIGMA-ALDRICH) and Penicillin-Streptomycin mixed solution (Nacalai Tesque).
2×10^4 Raw264.7 cells were seeded on a plate, and were then treated with IRF-PIPA 1, IRF-PIPA 2, IRF-PIPA 3 or IRF-PIPA 4 for 24 hours. Thereafter, the cells were stimulated with LPS (Lipopolysaccharide, SIGMA-ALDRICH) for 16 hours, and the culture supernatant was then recovered. The concentration of cytokine in the culture supernatant was measured using ELISA kit (R&D SYSTEMS) according to the standard protocols. The culture supernatant was diluted with 1% BSA-PBS, as necessary, and was then analyzed. 2.5×10^5 Mouse peritoneal macrophages were seeded on a plate, and were then treated with IRF-PIPA 3 for 16 or 24 hours. Thereafter, the cells were stimulated with Poly(I:C) (InvivoGen) for 16 hours or with mRNA vaccine (Moderna) for 20 to 24 hours, and the culture supernatant was then recovered. The concentration of cytokine in the culture supernatant was measured using ELISA kit (R&D SYSTEMS) according to the same standard protocols. On the other hand, the concentration of cytokine in mouse plasma was measured by administering 400 μg/mouse IRF-PIPA 3 into the abdominal cavity of wild-type mice, then administering 250 μg of Poly(I:C) into the same abdominal cavity 24 hours after the IRF-PIPA 3 administration, then collecting blood further 2 hours after the Poly(I:C) administration, and then measuring the cytokine concentration in the plasma using ELISA kit (R&D SYSTEMS) according to standard protocols.

Structure (SMILES)	concentration dependence of suppression of IFN-β production
CC(=O)Nc1cn(C)c(C(=O)Nc2cc(C(=O)NCCC(=O)Nc3cc(C(=O)Nc4cn(C)c(C(=O)NCCCC(=O)Nc5cc(C(=O)Nc6cc(C(=O)NCCC(=O)Nc7cc(C(=O)Nc8cc(C(=O)NCCCN(C)C)n(C)c8)n(C)c7)n(C)c6)n(C)c5)n4)n(C)c3)n(C)c2)n1 [IRF-PIPA 1]	concentration dependence was not observed
CC(=O)Nc1cn(C)c(C(=O)Nc2cc(C(=O)NCCC(=O)Nc3cc(C(=O)Nc4cc(C(=O)NCCCC(=O)Nc5cn(C)c(C(=O)Nc6cc(C(=O)NCCC(=O)Nc7cc(C(=O)Nc8cc(C(=O)NCCCN(C)C)n(C)c8)n(C)c7)n(C)c6)n5)n(C)c4)n(C)c3)n(C)c2)n1 [IRF-PIPA 2]	concentration dependence was not observed
